These results are taken from US9890166B2, “Imidazopyrrolidine derivatives and their use in the treatment of disease” (NOVARTIS AG, priority 2013, dated 2018).

Experiment [1] concerns the target BRD4 (His-Brd4(44-477)) (Homo sapiens (Human), UniProt O60885). The experiment is described as follows: TR-FRET in-vitro binding assay for BRD4. Particulars: single determination or n ≧ 2 independent determinations, read-out: Biochemical IC50 BRD4. The method in brief: (§1)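 His-tagged BRD2, BRD3 and BRD4 fragments tested by TR-FRET at 8 compound concentrations, with DMSO stocks at 10 mM. Read on EnVision after 35 min incubation at 30° C.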
A general note: TR-FRET usually uses a lanthanide donor and a delayed reading to cut background.

Experiment [2] concerns the target BRD2 (His-Brd2(60-472)) (Homo sapiens (Human), UniProt P25440). The experiment is described as follows: TR-FRET in-vitro binding assay for BRD2. Particulars: single determination or n ≧ 2 independent determinations, read-out: Biochemical IC50 BRD2. The method in brief: as §1
In experiment [3] the target is BRD3 (His-Brd3(20-477)) (Homo sapiens (Human), UniProt Q15059). The experiment is described as follows: TR-FRET in-vitro binding assay for BRD3. Particulars: single determination or n ≧ 2 independent determinations, read-out: Biochemical IC50 BRD3. The method in brief: as §1
Chain of BRD3 (His-Brd3(20-477)) (Q15059 20-477): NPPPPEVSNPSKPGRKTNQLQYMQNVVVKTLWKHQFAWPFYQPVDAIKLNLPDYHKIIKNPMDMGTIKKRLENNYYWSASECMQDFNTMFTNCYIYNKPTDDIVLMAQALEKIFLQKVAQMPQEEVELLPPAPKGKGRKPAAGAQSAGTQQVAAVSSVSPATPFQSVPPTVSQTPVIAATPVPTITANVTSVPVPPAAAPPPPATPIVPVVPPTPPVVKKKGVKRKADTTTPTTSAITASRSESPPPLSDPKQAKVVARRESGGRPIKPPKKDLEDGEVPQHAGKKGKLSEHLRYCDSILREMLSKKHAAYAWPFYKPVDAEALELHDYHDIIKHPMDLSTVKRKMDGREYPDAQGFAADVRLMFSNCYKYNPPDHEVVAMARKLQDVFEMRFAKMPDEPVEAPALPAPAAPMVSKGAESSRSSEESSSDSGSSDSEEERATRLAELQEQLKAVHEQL
The target of experiment [4] is CREBBP bromodomain (His-CREBBP(1081-1197)) (Homo sapiens (Human), UniProt Q92793). Put plainly: AlphaScreen in-vitro binding assay for CREBBP. As to conditions: single determination or n ≧ 2 independent determinations, read-out: Biochemical IC50 CREBBP. The method in brief:
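Detection used nickel-chelate acceptor plus streptavidin donor AlphaScreen beads, 1 h room temperature. Percent inhibition fitted by non-linear regression to IC50.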

Experiment [5] concerns the target nuclear BRD4-NUT foci in HCC2494 NUT midline carcinoma cells (Homo sapiens, UniProt O60885). Put plainly: cell-based.
Experiment [6] relates to THP-1 cells. Put plainly: Cell growth inhibition assay (CellTiter-Glo), THP-1.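 For all read-outs here: viability read as cellular ATP luminescence after 4 days, 3-fold dilution series from 10 µM, DMSO vehicle-treated cells taken as 100%, cell-free medium wells as −100%.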 Particulars: for GI50: Homo sapiens, THP-1, read-out: THP-1 GI50; for THP-1 TGI: THP-1 cells, total growth inhibition, CellTiter-Glo.
In experiment [7] the test system is K-562 cells. Put plainly: Cell growth inhibition assay (CellTiter-Glo), K-562.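 For all read-outs here: cellular ATP measured by luminescence after 4 days of exposure, 3-fold dilution series from 10 µM, DMSO vehicle-treated cells define 100%, cell-free medium wells −100%.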 Particulars: for GI50: Homo sapiens, K562, read-out: K-562 GI50; for K-562 TGI: K-562 cells, total growth inhibition, CellTiter-Glo. (In general: ATP-based viability assays read luminescence as a measure of living cells.)
Experiment [8] relates to MV-4-11 cells. The experiment is described as follows: Cell growth inhibition assay (CellTiter-Glo), MV-4-11.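 For all read-outs here: cellular ATP luminescence after 4 days, 3-fold dilution series from 10 µM top dose, vehicle (0.1% DMSO) set to 100%, cell-free medium set to −100%, day 0 corrected.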 Particulars: for GI50: Homo sapiens, MV4-11, read-out: MV-4-11 GI50; for MV-4-11 TGI: MV-4-11 cells, total growth inhibition, CellTiter-Glo.

Chain of BRD2 (His-Brd2(60-472)) (P25440 60-472): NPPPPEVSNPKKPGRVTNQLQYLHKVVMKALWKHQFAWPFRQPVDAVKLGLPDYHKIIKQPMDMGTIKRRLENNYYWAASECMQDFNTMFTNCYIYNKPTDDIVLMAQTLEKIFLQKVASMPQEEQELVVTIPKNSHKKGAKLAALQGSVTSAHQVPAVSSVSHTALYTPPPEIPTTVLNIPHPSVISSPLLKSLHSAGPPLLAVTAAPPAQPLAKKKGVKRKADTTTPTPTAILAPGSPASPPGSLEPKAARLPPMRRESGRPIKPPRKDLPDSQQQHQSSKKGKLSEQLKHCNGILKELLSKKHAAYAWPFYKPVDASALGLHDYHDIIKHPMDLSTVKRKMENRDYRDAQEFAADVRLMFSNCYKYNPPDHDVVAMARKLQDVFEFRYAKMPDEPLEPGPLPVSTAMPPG
Chain of CREBBP bromodomain (His-CREBBP(1081-1197)) (Q92793 1081-1197): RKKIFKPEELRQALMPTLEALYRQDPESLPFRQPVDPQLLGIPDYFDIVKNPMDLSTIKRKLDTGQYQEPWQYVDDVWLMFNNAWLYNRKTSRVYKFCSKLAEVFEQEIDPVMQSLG

Consider `COc1ncc(-c2nc3c([nH]2)C(c2ccc(Cl)cc2)N(c2cc(OC)c4nnc(C)n4c2)C3=O)c(OC)n1` (stereo not drawn) [Example 127, 6-(4-chlorophenyl)-2-(2,4-dimethoxypyrimidin-5-yl)-5-(8-methoxy-3-methyl-[1,2,4]triazolo[4,3-a]pyridin-6-yl)-5,6-dihydropyrrolo[3,4-d]imidazol-4(1H)-one], for which the IC50 (usually the concentration at which inhibition is half-maximal) in experiment [1] is 120 nM; in experiment [2] it was 360 nM; in experiment [3] it was 480 nM; in experiment [4], > 37000 nM; in experiment [5], 408 nM. The GI50 (commonly the concentration that inhibits growth by half) stood at 377 nM in experiment [6], 1720 nM in experiment [7] and 209 nM in experiment [8]. For the same compound, in experiment [6], the “THP-1 TGI” value came out at 966 nM. The “K-562 TGI” value in experiment [7] is >10000 nM. For the same compound, the “MV-4-11 TGI” value in experiment [8] was 317 nM.
Take `COc1ccc(-c2nc3c(n2C)C(=O)N(c2cc(C)c(=O)n(C)c2)C3c2ccc(Cl)cc2)cn1` (stereo not drawn) [Example 6, 6-(4-chlorophenyl)-5-(1,5-dimethyl-6-oxo-1,6-dihydropyridin-3-yl)-2-(6-methoxypyridin-3-yl)-3-methyl-5,6-dihydropyrrolo[3,4-d]imidazol-4(3H)-one]: the IC50 in experiment [1] was 92 nM; in experiment [2], 88 nM; in experiment [3], 88 nM; in experiment [4], 2700 nM; in experiment [5] it was 86.3 nM. Further, the GI50 in experiment [6] was 161 nM; in experiment [7], 230 nM; in experiment [8] it was 60.1 nM. Moreover, the “THP-1 TGI” value in experiment [6] amounted to 324 nM. The “K-562 TGI” value in experiment [7] is >10000 nM. Moreover, in experiment [8], the “MV-4-11 TGI” value is 102 nM.
As for `Cc1cc(N2C(=O)c3nc(-c4ncco4)n(C(C)C)c3C2c2ccc(Cl)cc2)cn2c(C)nnc12` (stereo not drawn) [Example 15, 6-(4-chlorophenyl)-5-(3,8-dimethyl-[1,2,4]triazolo[4,3-a]pyridin-6-yl)-1-isopropyl-2-(oxazol-2-yl)-5,6-dihydropyrrolo[3,4-d]imidazol-4(1H)-one], the IC50 turned out to be 37 nM in experiment [1]; 48 nM in experiment [2]; 41 nM in experiment [3]; 16100 nM in experiment [4]; 80 nM in experiment [5]. The results for the GI50 in experiment [6], in experiment [7] and in experiment [8] were 71.9 nM, 318 nM and 42 nM, respectively. For the same compound, the “THP-1 TGI” value in experiment [6] stood at 132 nM. Moreover, the “K-562 TGI” value in experiment [7] was >10000 nM. Besides, in experiment [8], the “MV-4-11 TGI” value stood at 86.25 nM.
